“And” between values parts separate entries of the source, which are not always exact repeats. Equal entries are not always repeated. Where two headings read alike, the source gives them in different places.
Experiments:
[1] = target: T1, sex hormone-binding globulin (SHBG) (Homo sapiens, UniProt P04278); assay: Free testosterone assay, SHBG-spiked serum pool (Example 3); conditions: charcoal-absorbed human serum pool spiked with 400 μg SHBG/milliliter
T1 sequence (P04278 30-402): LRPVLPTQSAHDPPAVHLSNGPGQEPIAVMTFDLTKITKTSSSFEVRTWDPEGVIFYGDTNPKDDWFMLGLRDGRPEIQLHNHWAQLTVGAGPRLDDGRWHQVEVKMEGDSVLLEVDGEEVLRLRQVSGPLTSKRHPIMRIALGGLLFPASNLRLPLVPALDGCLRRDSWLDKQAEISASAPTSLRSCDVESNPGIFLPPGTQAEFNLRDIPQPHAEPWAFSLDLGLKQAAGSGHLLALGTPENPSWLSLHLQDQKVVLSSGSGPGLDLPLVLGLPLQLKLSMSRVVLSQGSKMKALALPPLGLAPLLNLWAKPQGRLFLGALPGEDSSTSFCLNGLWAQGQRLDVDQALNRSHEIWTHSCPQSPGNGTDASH
Method: To investigate the effect of sex hormone-binding globulin (SHBG) levels on the free testosterone assay system, a charcoal-absorbed human serum pool was spiked with 400 μg SHBG/milliliter, a level which is approximately 10 times normal.
Since charcoal absorption removes testosterone from the serum pool, it should have free (and total) testosterone concentrations of zero—that is, percent bound values of approximately 100% B/Bo—both before and after spiking.

[2] = test system: transport proteins; conditions: single samples
Method: Free testosterone calibrators, prepared by adding different amounts of testosterone to human serum free of any apparent testosterone, were calibrated by direct equilibrium dialysis and assigned free testosterone values in pg/ml. […] The tubes are incubated for 4 hours at 37° C., then decanted and radioactivity counted. Results are computed by interpolation to from the calibration curve.

[3] = test system: endogenous binders
[4] = test system: anti-T4 antibody-coated tubes; assay: Free T4 assay of 20 samples with tracers holding different blocking agents (Example 5); parameters: species or system rabbits
Method: The tubes are then incubated for 60 minutes at 37° C. After this incubation the tubes are decanted and the bound radioactivity is counted. Results are calculated from the calibration curve and expressed in ng/dl.
Iodinated T4 analog was compounded as described above and divided into five aliquots. To each aliquot the following reagents were added.
Considering tracer 1 as the reference and comparing the others to it, the following results were obtained.

[5] = target: T2, albumin (Homo sapiens, UniProt P02768); assay: Free testosterone assay, effect of oleic acid (Example 6); parameters: from tissue; host or cells: patient serum samples
Method: Since non-esterified free fatty acids (NEFA) have a higher association constant to albumin than does testosterone, addition of NEFA should displace free testosterone from albumin. This was confirmed by an experiment in which various amounts of oleic acid were added to each of three patient samples.

[6] = test system: albumin and/or SHBG; parameters: species or system human
Method: Testosterone was selected as a representative member of this family. […] This analog tracer was subsequently compounded in 0.01 M HEPES buffer, pH=7.4, containing 1 mg/ml charcoal-absorbed human serum albumin and 0.01% sodium azide. Blocking agents were added, as described in the specific examples below.

[7] = target: T2, albumin; conditions: cited from earlier work

T2 sequence (P02768 25-609): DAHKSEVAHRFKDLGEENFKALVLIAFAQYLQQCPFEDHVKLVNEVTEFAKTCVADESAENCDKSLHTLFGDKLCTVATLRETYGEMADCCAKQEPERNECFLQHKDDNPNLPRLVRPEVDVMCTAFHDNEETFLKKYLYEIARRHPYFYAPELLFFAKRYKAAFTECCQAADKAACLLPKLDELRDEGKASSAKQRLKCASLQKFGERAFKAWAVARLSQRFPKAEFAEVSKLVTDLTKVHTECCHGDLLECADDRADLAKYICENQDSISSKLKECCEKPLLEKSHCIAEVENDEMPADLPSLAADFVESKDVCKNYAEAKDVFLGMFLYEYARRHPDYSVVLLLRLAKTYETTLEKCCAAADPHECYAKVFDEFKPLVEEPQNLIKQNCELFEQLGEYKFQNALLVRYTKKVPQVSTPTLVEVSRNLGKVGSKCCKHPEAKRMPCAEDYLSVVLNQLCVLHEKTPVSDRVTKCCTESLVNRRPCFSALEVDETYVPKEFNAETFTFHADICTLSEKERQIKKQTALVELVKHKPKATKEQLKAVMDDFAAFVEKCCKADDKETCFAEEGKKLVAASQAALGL

In the case of “6-hydroxytestosterone-19-carboxymethyl ether histamine”, the “percent bound value, B/Bo” value [1] is reported as 99%, the “percent bound (% B/Bo) After charcoal absorption” value ([2]; 3rd Trimester) is reported as 99% and 96% and 97% and the “percent bound (% B/Bo) After charcoal absorption” value ([2]; Normal Females) is reported as 105% and 104%. The “binding to endogenous binders” value [3] was “does not bind to endogenous binders”.
With CCCCCCCC/C=C\CCCCCCCC(=O)O [oleic acid] the “oleic acid concentration in the tracer that displaces bound unlabeled T4 from albumin” value [4] was “greater than 1.0 mmol/l”, the “apparent free testosterone level, Mean” value ([5]; Oleic Acid Added 2.5 mmol/l) was 7.9 pg/mL and the “apparent free testosterone level, Mean” value ([5]; Oleic Acid Added 5.0 mmol/l) was 14.8 pg/mL. The “apparent free testosterone level, Patients 1-3” value ([5]; Oleic Acid Added 5.0 mmol/l) was 11.6 pg/mL and 11.1 pg/mL and 21.8 pg/mL, the “apparent free testosterone level, Mean” value ([5]; Oleic Acid Added 7.5 mmol/l) was 23.2 pg/mL and the “apparent free testosterone level, Mean” value ([5]; Oleic Acid Added 10.0 mmol/l) was 32.0 pg/mL.
For O=[N+]([O-])c1ccc(O)c([N+](=O)[O-])c1 [2,4-dinitrophenol], the “effect on protein-bound testosterone and tracer” value [6] is given as “displace testosterone from albumin and/or SHBG” and the “association constant, albumin (single aromatic compounds)” value [7] is given as 11,000.
With O=S(=O)(O)c1cccc2cccc(Nc3ccccc3)c12 [ANS, 8-anilino-1-naphthalenesulfonic acid] the “effect on protein-bound testosterone and tracer” value [6] was “displace testosterone from albumin and/or SHBG”.
In the case of O=C1OC(c2ccc(O)c(S(=O)(=O)O)c2)(c2ccc(O)c(S(=O)(=O)O)c2)c2c(Br)c(Br)c(Br)c(Br)c21 [sulfobromophthalein], the “effect on protein-bound testosterone and tracer” value [6] is reported as “inhibits the binding of the analog tracer to albumin without displacing testosterone bound to albumin”.
